Test results: patent US8940769B2, “Biaryl benzoimidazole derivatives and pharmaceutical composition comprising the same” (Daewoong Pharmaceutical Co., Ltd., priority 2006, dated 2015)

What was measured:
[1] = biological target: T1, human vanilloid receptor VR-1 (hVR1) (Homo sapiens, UniProt Q8NER1); experiment: Calcium influx test of vanilloid receptor (capsaicin-induced, Fluo-3/AM, hVR1-HEK293 cells); assay type: cell-based; settings: for IC50: calcium influx induced by 1 μM capsaicin, read-out: Inhibitory effect IC50 (nM) on calcium influx; for inhibition at 0.2 µM: single concentration of compound 200 nM, 1 μM capsaicin, read-out: Inhibitory effect (%) on calcium influx
T1 construct: expressed in transfected cells; host or cells: HEK293 Tet-on cells (hVR1-HEK293), expression induced with doxycycline
Protocol: In order to measure an activity of the biaryl benzoimidazole derivative of the invention as an antagonist, a calcium influx test was performed.
An hVR1-HEK293 cell line is a cell line, in which a Human Embryonic Kidney (HEK) 293 Tet-on cell is transformed with a human vanilloid-1 gene (pTRE2hyg-hVR1, 7.8 kb). The cell line can regulate a VR-1 expression, depending on the administration of a tetracycline analogue, doxycycline. At two days before the calcium influx test, the cell line was cultured in media containing doxycycline to induce the VR-1 expression, and then used. First, the hVR1-HEK293 cells were cultured in T75 flasks to have a density of about 80%, and then detached from the bottom of the flasks by using trypsin. The detached cells were centrifuged and collected. Then, the cells were suspended in media containing 1 μg/mL doxycycline, and diluted to have a concentration of 2×10^5 to 4×10^5 cells/mL. 100 μL of the suspended cells were added to each well of 96-well black plate, cultured at 37° C. and 5% CO2 cell incubator for two days, and then used in the calcium influx test.
The compound was dissolved in dimethyl sulfoxide (DMSO), and then used for the calcium influx test.
In order to measure the calcium influx […], the cells were cultured in a solution containing Fluo-3/AM, which is a calcium indicator, at 37° C. for 90 minutes, so as to be permeated by a fluorescent dye. […] 193 μL D-PBS were added to each well, and then the compound was added thereto in various concentrations. To measure an activity as an antagonist, the cells were treated with 1 μM capsaicin to stimulate the calcium influx. The inhibitory effect of the compound when calcium influx was induced by 1 μM capsaicin was measured depending on its concentration using a fluorescence spectrometer, and the obtained data were substituted into a hill equation to analyze the values.
The inhibitory effect on calcium influx was measured with a single concentration of the compounds of the invention (200 nM), and the result thereof are shown in Table 2.

[2] = tested on: ICR male mouse; experiment: PBQ-induced writhing test (analgesic efficacy); assay type: in vivo; settings: oral administration, PBQ 0.02% intraperitoneal
Protocol: In order to test analgesic efficacy of the biaryl benzoimidazole derivative of the invention, a PBQ-induced writhing test was performed using a mouse.
A 5-week-old ICR male mouse was used as an experimental animal, and PBQ (phenyl-p-quinone, 0.02%) was used as a chemical stimulator. 20 mg of the test material per mouse body weight were suspended in 10 mL solvent of Na-CMC and saline solution, and then used. […] Between 5 to 10 minutes after administration, the writhing frequency of each subject of the experimental groups was measured, and for the measurement of the analgesic efficacy, the frequency reduction was calculated as compared to a control group by using Equation 1. Inhibitory effect (%)=[(a control group administered with excipient−a group administered with test material)/a control group administered with excipient]×100 [Equation 1]

T1 sequence (Q8NER1 whole entry): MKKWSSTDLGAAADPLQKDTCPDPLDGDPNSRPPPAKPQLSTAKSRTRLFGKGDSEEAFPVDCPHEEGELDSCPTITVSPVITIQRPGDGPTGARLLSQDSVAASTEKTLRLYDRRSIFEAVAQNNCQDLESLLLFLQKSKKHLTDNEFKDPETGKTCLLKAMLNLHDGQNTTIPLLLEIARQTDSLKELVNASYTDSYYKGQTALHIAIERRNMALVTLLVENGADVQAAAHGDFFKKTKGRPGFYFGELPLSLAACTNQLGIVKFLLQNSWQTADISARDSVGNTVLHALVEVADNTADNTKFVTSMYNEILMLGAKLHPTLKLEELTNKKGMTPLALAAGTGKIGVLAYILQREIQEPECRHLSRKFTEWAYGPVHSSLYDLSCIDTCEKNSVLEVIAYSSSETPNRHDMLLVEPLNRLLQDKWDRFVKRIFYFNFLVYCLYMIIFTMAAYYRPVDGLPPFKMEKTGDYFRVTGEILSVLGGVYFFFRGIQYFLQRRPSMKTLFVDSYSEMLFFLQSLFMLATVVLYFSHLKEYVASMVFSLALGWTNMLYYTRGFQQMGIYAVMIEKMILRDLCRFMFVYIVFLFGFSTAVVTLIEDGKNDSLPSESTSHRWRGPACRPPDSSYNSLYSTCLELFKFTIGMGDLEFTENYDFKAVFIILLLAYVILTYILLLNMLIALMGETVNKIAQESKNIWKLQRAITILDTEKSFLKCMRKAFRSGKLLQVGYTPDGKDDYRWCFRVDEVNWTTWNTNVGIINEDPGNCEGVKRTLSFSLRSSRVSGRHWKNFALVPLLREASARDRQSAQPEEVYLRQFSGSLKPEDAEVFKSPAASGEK

IC50 [1] [nM] | inhibition at 0.2 µM [1] [%] | SMILES | Inhibitory effect (%) on writhing frequency ([2]; (1 hour)) | Inhibitory effect (%) on writhing frequency ([2]; (2 hour)) | Inhibitory effect (%) on writhing frequency ([2]; (0.5 hour))
– | 13 | CCNC(=O)c1cnc(-c2ccc(-c3nc4ncc(Br)cc4[nH]3)nc2)c(Cl)c1 [Compound 100, 6′-(6-bromo-1H-imidazo[4,5-b]pyridin-2-yl)-3-chloro-[2,3′]bipyridinyl-5-carboxylic acid ethyl amide] | – | – | –
– | 3.7 | CCNC(=O)c1cnc(-c2ccc(-c3nc4c(Br)cc(C(F)(F)F)cc4[nH]3)nc2)c(Cl)c1 [Compound 101, 6′-(4-bromo-6-trifluoromethyl-1H-benzoimidazol-2-yl)-3-chloro-[2,3′]bipyridinyl-5-carboxylic acid ethyl amide] | – | – | –
– | 13.2 | CCNC(=O)c1cnc(-c2ccc(-c3nc4c(Br)cc(Br)cc4[nH]3)nc2)c(Cl)c1 [Compound 102, 3-chloro-6′-(4,6-dibromo-1H-benzoimidazol-2-yl)-[2,3′]bipyridinyl-5-carboxylic acid ethyl amide] | – | – | –

The remaining lines, values behind:

SMILES | IC50 [1] [nM] | inhibition at 0.2 µM [1] [%] | Inhibitory effect (%) on writhing frequency ([2]; (1 hour)) | Inhibitory effect (%) on writhing frequency ([2]; (2 hour)) | Inhibitory effect (%) on writhing frequency ([2]; (0.5 hour))
CC(C)(C)c1ccc2nc(-c3ccc(-c4ncc(CO)cc4Cl)cc3)[nH]c2c1 [Compound 29, {6-[4-(6-tert-butyl-1H-benzoimidazol-2-yl)-phenyl]-5-chloro-pyridin-3-yl}-methanol] | 15.9 | 74.8 | 59 (1 hour) % | – | –
COC(=O)c1cnc(-c2ccc(-c3nc4ccc(C(F)(F)F)cc4[nH]3)cc2)c(Cl)c1 [Compound 48, 5-chloro-6-[4-(6-trifluoromethyl-1H-benzoimidazol-2-yl)-phenyl]-nicotinic acid methyl ester] | 55.1 | 38.7 | 41 (1 hour) % | – | –
COC(=O)c1cnc(-c2ccc(-c3nc4ccc(C(C)(C)C)cc4[nH]3)cc2)c(Cl)c1 [Compound 49, 6-[4-(6-tert-butyl-1H-benzoimidazol-2-yl)-phenyl]-5-chloro-nicotinic acid methyl ester] | 23.1 | 85 | – | 49 (2 hour) % | –
COC(=O)c1cnc(-c2ccc(-c3nc4ccc(Br)cc4[nH]3)cc2)c(Cl)c1 [Compound 50, 6-[4-(6-bromo-1H-benzoimidazol-2-yl)-phenyl]-5-chloro-nicotinic acid methyl ester] | 62.3 | 46.4 | 19 (1 hour) % | – | –
CC(=O)OCc1cnc(-c2ccc(-c3nc4ccc(C(F)(F)F)cc4[nH]3)cc2)c(Cl)c1 [Compound 53, acetic acid 5-chloro-6-[4-(6-trifluoromethyl-1H-benzoimidazol-2-yl)-phenyl]-pyridin-3-yl methyl ester] | 90.4 | 37.4 | – | 34 (2 hour) % | –
COC(=O)c1cnc(-c2ccc(-c3nc4ccc(N5CCN(C)CC5)cc4[nH]3)nc2)c(Cl)c1 [Compound 72, 3-chloro-6′-[6-(4-methyl-piperazin-1-yl)-1H-benzoimidazol-2-yl]-[2,3′]bipyridinyl-5-carboxylic acid methyl ester] | – | -2.9 | – | – | 31 (0.5 hour) %
COC(=O)c1cnc(-c2ccc(-c3nc4ccc(C(F)(F)F)cc4[nH]3)nc2)c(Cl)c1 [Compound 73, 3-chloro-6′-(6-trifluoromethyl-1H-benzoimidazol-2-yl)-[2,3′]bipyridinyl-5-carboxylic acid methyl ester] | 55.2 | 56.1 | 39 (1 hour) % | – | –
